Assay results published in ChEMBL document CHEMBL1201862, “PubChem BioAssay data set” (2004).
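Tested at 5 concentrations; 48 h exposure; 96-well plates; endpoints linearly interpolated, else capped at highest concentration. GI50: concentration for 50% inhibition of growth.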 Activity calls are given as the source filed them. Cut-off read from the data, not from the text of the source: active = GI50 up to about 1.1 µM and inactive = higher.

How the values were obtained:
Experiment in all cases: inhibition of tumour cell growth, NCI panel, 48 h
A549 = test system: A549
BT-549 = test system: BT-549
CCRF-CEM = test system: CCRF-CEM
HCT-15 = test system: HCT-15
KM12 = test system: KM12
MDA-N = test system: MDA-N
NCI-H226 = test system: NCI-H226
NCI-H460 = test system: NCI-H460
OVCAR-8 = test system: OVCAR-8
SK-MEL-2 = test system: SK-MEL-2
SK-MEL-5 = test system: SK-MEL-5
SK-OV-3 = test system: SK-OV-3
SNB-75 = test system: SNB-75
T47D = test system: T47D
TK-10 = test system: TK-10
UACC-257 = test system: UACC-257
Malme-3M = test system: Malme-3M
NCI-H522 = test system: NCI-H522
SF-268 = test system: SF-268

| SMILES | GI50 (A549) | GI50 (BT-549) | GI50 (CCRF-CEM) | GI50 (HCT-15) | GI50 (KM12) | GI50 (MDA-N) | GI50 (NCI-H226) | GI50 (NCI-H460) | GI50 (OVCAR-8) | GI50 (SK-MEL-2) | GI50 (SK-MEL-5) | GI50 (SK-OV-3) | GI50 (SNB-75) | GI50 (T47D) | GI50 (TK-10) | GI50 (UACC-257) | GI50 (Malme-3M) | GI50 (NCI-H522) | GI50 (SF-268) |
| --- | --- | --- | --- | --- | --- | --- | --- | --- | --- | --- | --- | --- | --- | --- | --- | --- | --- | --- | --- |
| O=C(O)C(=O)Cc1ccc2c(c1)OCO2 | > 100 µM (inactive) | > 100 µM (inactive) | 18.9 µM (inactive) | > 100 µM | > 100 µM (inactive) | > 100 µM (inactive) | 65.5 µM (inactive) | > 100 µM (inactive) | > 100 µM (inactive) | > 100 µM (inactive) | > 100 µM (inactive) | > 100 µM (inactive) | > 100 µM (inactive) | > 100 µM (inactive) | > 100 µM (inactive) | > 100 µM (inactive) | – | – | – |
| O=C(/C=C/c1ccc2c(c1)OCO2)NCc1ccco1 | > 100 µM (inactive) | 25.9 µM (inactive) | > 100 µM (inactive) | > 100 µM | > 100 µM (inactive) | > 100 µM (inactive) | > 100 µM (inactive) | > 100 µM (inactive) | > 100 µM (inactive) | > 100 µM (inactive) | > 100 µM (inactive) | > 100 µM (inactive) | 22.3 µM (inactive) | 19.4 µM (inactive) | > 100 µM (inactive) | > 100 µM (inactive) | > 100 µM (inactive) | – | – |
| CCOC(=O)C1CCC(=O)N1C(=O)c1cccc(Cl)c1 (configuration not stated) | > 100 µM (inactive) | > 100 µM (inactive) | > 100 µM (inactive) | > 100 µM | > 100 µM (inactive) | > 100 µM (inactive) | > 100 µM (inactive) | > 100 µM (inactive) | > 100 µM (inactive) | – | > 100 µM (inactive) | – | > 100 µM (inactive) | > 100 µM (inactive) | > 100 µM (inactive) | > 100 µM (inactive) | > 100 µM (inactive) | > 100 µM (inactive) | > 100 µM (inactive) |
| COP(=O)(OC)C(C)(C)NC(=O)NC(F)(F)F | > 100 µM (inactive) | > 100 µM (inactive) | > 100 µM (inactive) | > 100 µM | > 100 µM (inactive) | > 100 µM (inactive) | 22.2 µM (inactive) | > 100 µM (inactive) | > 100 µM (inactive) | > 100 µM (inactive) | > 100 µM (inactive) | > 100 µM (inactive) | > 100 µM (inactive) | > 100 µM (inactive) | > 100 µM (inactive) | > 100 µM (inactive) | > 100 µM (inactive) | – | > 100 µM (inactive) |
| CCNC1=C(NC(=O)c2ccccc2)C(=O)c2ccccc2C1=O | 67.6 µM (inactive) | 90.4 µM (inactive) | 70.1 µM (inactive) | 18.5 µM | 30.4 µM (inactive) | 4.9 µM (inactive) | 27.9 µM (inactive) | 39.4 µM (inactive) | 46.8 µM (inactive) | – | > 10 µM (inactive) | 24 µM (inactive) | – | 14.1 µM (inactive) | 98.4 µM (inactive) | 23.4 µM (inactive) | 16.8 µM (inactive) | 11.2 µM (inactive) | – |
| Cc1cccc(Br)[n+]1[O-] | > 100 µM (inactive) | > 100 µM (inactive) | > 100 µM (inactive) | > 100 µM | > 100 µM (inactive) | – | 96.4 µM (inactive) | > 100 µM (inactive) | > 100 µM (inactive) | > 100 µM (inactive) | > 100 µM (inactive) | > 100 µM (inactive) | > 100 µM (inactive) | > 100 µM (inactive) | > 100 µM (inactive) | > 100 µM (inactive) | > 100 µM (inactive) | > 100 µM (inactive) | > 100 µM (inactive) |
| O=C1CC2(CCNCC2)C(=O)N1N1CCCC1 | > 100 µM (inactive) | > 100 µM (inactive) | > 100 µM (inactive) | > 100 µM | > 100 µM (inactive) | > 100 µM (inactive) | > 100 µM (inactive) | – | > 100 µM (inactive) | – | > 100 µM (inactive) | > 100 µM (inactive) | – | > 100 µM (inactive) | > 100 µM (inactive) | > 100 µM (inactive) | > 100 µM (inactive) | > 100 µM (inactive) | – |
| COc1c(C)c(C/C=C(\C)CCCCO)c(OC)c(OC)c1OC | 23.7 µM (inactive) | > 100 µM (inactive) | 45.6 µM (inactive) | > 100 µM | 19.1 µM (inactive) | > 100 µM (inactive) | – | 18 µM (inactive) | > 100 µM (inactive) | > 100 µM (inactive) | 88.7 µM (inactive) | > 100 µM (inactive) | > 100 µM (inactive) | – | > 100 µM (inactive) | > 100 µM (inactive) | – | > 100 µM (inactive) | > 100 µM (inactive) |
| NC(=O)NCCCC(NC(=O)OCCCCCn1ccc(=O)[nH]c1=O)C(=O)O (configuration not stated) | > 100 µM (inactive) | > 100 µM (inactive) | > 100 µM (inactive) | > 100 µM | > 100 µM (inactive) | > 100 µM (inactive) | 63.2 µM (inactive) | > 100 µM (inactive) | > 100 µM (inactive) | > 100 µM (inactive) | – | > 100 µM (inactive) | > 100 µM (inactive) | > 100 µM (inactive) | > 100 µM (inactive) | > 100 µM (inactive) | – | – | > 100 µM (inactive) |
| CC(=O)OCC12CN(C#N)C3C4COC(CC41)C1(C(=O)N(C)c4ccccc41)C32 (configuration not stated) | 28.4 µM (inactive) | 2.64 µM (inactive) | 11.8 µM (inactive) | 17.1 µM | 36.5 µM (inactive) | – | 15.8 µM (inactive) | 31.3 µM (inactive) | 19.5 µM (inactive) | 24.9 µM (inactive) | 26.7 µM (inactive) | 34.4 µM (inactive) | 26.5 µM (inactive) | 18.8 µM (inactive) | 20.4 µM (inactive) | 16.9 µM (inactive) | 21 µM (inactive) | 12.1 µM (inactive) | 29.1 µM (inactive) |
| CC1=CC[C@](C)(O)[C@@]2(C)CC[C@H]3C(=C(C)C)C(=O)C[C@]3(C)C[C@H]12 | 46.8 µM (inactive) | 13.8 µM (inactive) | 10.8 µM (inactive) | 12.3 µM | 12.9 µM (inactive) | – | > 50 µM (inactive) | – | 29.2 µM (inactive) | > 50 µM (inactive) | 27.8 µM (inactive) | > 50 µM (inactive) | 26.5 µM (inactive) | 28.9 µM (inactive) | > 50 µM (inactive) | > 50 µM (inactive) | – | 10.4 µM (inactive) | > 50 µM (inactive) |
| O=c1c2c(sc3ccccc13)NCN(CCc1ccccc1)C2 | 49 µM (inactive) | 23.1 µM (inactive) | 43.9 µM (inactive) | – | 27.9 µM (inactive) | 25.6 µM (inactive) | 32 µM (inactive) | 32.7 µM (inactive) | 28.7 µM (inactive) | 23.8 µM (inactive) | 14.8 µM (inactive) | 66.5 µM (inactive) | 16.6 µM (inactive) | – | – | 33.5 µM (inactive) | 43.7 µM (inactive) | 31.7 µM (inactive) | – |
| O=C1c2ccccc2C(=O)N1c1nc(-c2ccc(Cl)cc2)cc(N2N=C(c3ccc(Br)cc3)CC2c2ccccc2)n1 (configuration not stated) | 3.24 µM (inactive) | 3.21 µM (inactive) | 4.13 µM (inactive) | 1.99 µM | 9.4 µM (inactive) | 1.03 µM (active) | 5.38 µM (inactive) | 4.36 µM (inactive) | 3.35 µM (inactive) | 3.26 µM (inactive) | 1.96 µM (inactive) | 6.34 µM (inactive) | – | 1.88 µM (inactive) | 7.98 µM (inactive) | 6.7 µM (inactive) | > 44.7 µM (inactive) | 2.09 µM (inactive) | 2.7 µM (inactive) |
| Cc1n[nH]c(=O)n1/N=C/c1ccco1 | > 100 µM (inactive) | > 100 µM (inactive) | > 100 µM (inactive) | > 100 µM | > 100 µM (inactive) | – | > 100 µM (inactive) | > 100 µM (inactive) | > 100 µM (inactive) | > 100 µM (inactive) | – | > 100 µM (inactive) | > 100 µM (inactive) | > 100 µM (inactive) | – | > 100 µM (inactive) | > 100 µM (inactive) | – | > 100 µM (inactive) |
| CN1C(Cl)=NS(=O)(=O)c2ccccc21 | > 100 µM (inactive) | > 100 µM (inactive) | 34 µM (inactive) | > 100 µM | > 100 µM (inactive) | > 100 µM (inactive) | > 100 µM (inactive) | 92.7 µM (inactive) | > 100 µM (inactive) | > 100 µM (inactive) | > 100 µM (inactive) | > 100 µM (inactive) | – | > 100 µM (inactive) | > 100 µM (inactive) | > 100 µM (inactive) | – | 28 µM (inactive) | > 100 µM (inactive) |
| Cc1ccc(/C=C2\CN(C)CC3C(c4ccc(C)cc4)=C(C#N)C(=O)NC23)cc1 (configuration not stated) | > 50 µM (inactive) | > 50 µM (inactive) | > 50 µM (inactive) | > 50 µM | > 50 µM (inactive) | > 50 µM (inactive) | > 50 µM (inactive) | > 50 µM (inactive) | > 50 µM (inactive) | > 50 µM (inactive) | > 50 µM (inactive) | > 50 µM (inactive) | – | > 50 µM (inactive) | > 50 µM (inactive) | > 50 µM (inactive) | > 50 µM (inactive) | > 50 µM (inactive) | > 50 µM (inactive) |
| CCCCCCCC/C=C/CCCCCCCC1CC(O)C(=O)O1 (configuration not stated) | 51.6 µM (inactive) | 28.9 µM (inactive) | 39.9 µM (inactive) | 43.1 µM | – | 59.7 µM (inactive) | > 100 µM (inactive) | 25.1 µM (inactive) | 55.1 µM (inactive) | – | 46.1 µM (inactive) | 79.8 µM (inactive) | 35.7 µM (inactive) | 39.5 µM (inactive) | > 100 µM (inactive) | 46.7 µM (inactive) | 54.1 µM (inactive) | – | 46.2 µM (inactive) |
